70 compounds from PMC8041284, “Tunable Methacrylamides for Covalent Ligand Directed Release Chemistry” (Journal of the American Chemical Society, 2021) can be followed below.

The assay has as its target BTK (Homo sapiens, UniProt Q06187). Put plainly: biochemical. The following applies: read-out: BTK inhibition (%), 0.75 uM BTK, […] probe 3l, 15 min preincubation.

Usually inhibition stands for the relative decrease from the control value, in per cent.

Structures are written as SMILES.

BTK, sequence (Q06187 402-655 limits assumed): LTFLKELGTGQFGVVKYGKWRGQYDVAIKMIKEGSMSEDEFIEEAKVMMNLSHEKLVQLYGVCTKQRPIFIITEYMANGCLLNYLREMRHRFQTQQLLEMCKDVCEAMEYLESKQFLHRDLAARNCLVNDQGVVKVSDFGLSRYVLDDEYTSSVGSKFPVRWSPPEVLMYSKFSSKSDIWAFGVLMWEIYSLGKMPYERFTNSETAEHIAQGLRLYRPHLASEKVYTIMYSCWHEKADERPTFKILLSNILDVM

Take `COc1cc(C(=O)O)ccc1NC(=O)[C@@H]1N[C@@H](CC(C)(C)C)[C@](C#N)(c2ccc(Cl)cc2F)[C@H]1c1cccc(Cl)c1F` [PCM-0215391]: the inhibition at 10 µM came out at 27.8%. To `O=C(Nc1ccc([N+](=O)[O-])cc1O)Nc1ccccc1Br` [PCM-0215392] belongs 73.1%. To `CCCc1cc2c(N3CCN(C4=NCC(C)(C)S4)CC3)ncnc2s1` [PCM-0215393] belongs -24.7%; to `C[C@H]1Oc2cc(cnc2N)-c2c(nn(C)c2C#N)CN(C)C(=O)c2ccc(F)cc21` [PCM-0215394], 17.9%. The value for `COC(=O)N[C@H](C(=O)N1CC2(CC2)C[C@H]1c1ncc(-c2ccc3c(c2)C(F)(F)c2cc(-c4ccc5nc([C@@H]6[C@H]7CC[C@H](C7)N6C(=O)[C@@H](NC(=O)OC)C(C)C)[nH]c5c4)ccc2-3)[nH]1)C(C)C` [PCM-0215396] was 74.9%. Regarding `O=C(/C=C\n1cnc(-c2cc(C(F)(F)F)cc(C(F)(F)F)c2)n1)NNc1ccccn1` [PCM-0215397], the inhibition at 10 µM was -19.3%. Take `COc1ccc(OC)c(C2C(C#N)=C(N)Oc3n[nH]c(-c4ccc5ccccc5c4)c32)c1` (stereo not shown) [PCM-0215398]: the inhibition at 10 µM was determined as 1.5%. To `C/C(=N\NC(=O)c1cccc(S(=O)(=O)N2CCOCC2)c1)c1cc(Cl)ccc1O` [PCM-0215399] belongs 25.5%; to `CC(=O)N1c2ccc(-c3ccc(C(=O)O)cc3)cc2[C@H](Nc2ccc(Cl)cc2)C[C@@H]1C` [PCM-0215400], 31.7%.

`CN[C@@H]1[C@@H](O)[C@@H](O[C@@H]2[C@@H](O)[C@H](O[C@H]3O[C@H](CN)[C@@H](O)[C@H](O)[C@H]3O)[C@@H](N)C[C@H]2NC(=O)[C@@H](O)CN)OC[C@]1(C)O` [PCM-0215401]: the inhibition at 10 µM worked out at 4.3%. To `CCC(CC)n1ccc2c(C(=O)NCc3c(C)cc(C)[nH]c3=O)cc(C#N)cc21` [PCM-0215402] belongs 1.5%. To `COC(=O)c1ccc2c(c1)nc(NC(=O)c1ccccc1)n2CCCc1ccccc1` [PCM-0215403] belongs 0%; to `COc1ccc(C(=O)CC2(O)C(=O)Nc3c(Cl)ccc(Cl)c32)cc1` (stereo not shown) [PCM-0215405], 8.5%; to `c1nc2nc(Nc3ccc(N4CCOCC4)cc3)nc(NC3CCCCC3)c2[nH]1` [PCM-0215406], 101%.

`CC(C)(C)OC(=O)Nc1ccc(-c2cc(C(=O)NCCCCCCC(=O)NO)no2)cc1` [PCM-0215407]: the inhibition at 10 µM was determined as 20.1%. The value for `NC[C@@](O)(c1ccc(Cl)cc1)c1ccc(-c2cn[nH]c2)cc1` [PCM-0215408] was -10.3%. To `Cc1cc(C)cc(C(=O)NOCCCCCC(=O)NO)c1` [PCM-0215409] belongs 9.3%. `CN(c1ccccc1CNc1nc(Nc2ccc3c(c2)CC(=O)N3)ncc1C(F)(F)F)S(C)(=O)=O` [PCM-0215410]: the inhibition at 10 µM amounted to 91.7%. Consider `CN(C)CCNC(=O)c1cccn2c(=O)c3cc4ccccc4cc3nc12` [PCM-0215411], for which the inhibition at 10 µM amounted to 5.4%. To `CNC(=O)c1ccccc1Nc1cc(Nc2ccc(N3CCOCC3)cc2OC)ncc1C(F)(F)F` [PCM-0215412] belongs 63.4%; to `COc1ccc(Oc2cc(C)c(-c3csc(NC(=O)c4ccncc4)n3)c(C)c2)cc1` [PCM-0215413], 20.8%; to `Cc1cc(N=Nc2ccc(S(=O)(=O)Nc3ccccn3)cc2)c(N)cc1O` [PCM-0215414], 76.4%. The value for `O=C(NO)c1ccc(CC(=O)N(CCO)c2ccccc2)cc1` [PCM-0215415] was 10.8%; that for `C=CC(=O)N1CCC(Oc2cc3c(Nc4ccc(Cl)c(Cl)c4F)ncnc3cc2OC)CC1` [PCM-0215416] was 119%. The value for `CN(C)CCCNC(=O)c1ccc(-c2cc(O)c3ncccc3c2)cc1` [PCM-0215418] was 19.3%; that for `Cn1cc(-c2ccc(S(=O)(=O)n3ccc(/C=C/C(=O)Nc4ccccc4N)c3)cc2)cn1` [PCM-0215419] was 32.4%; that for `Nc1nc(NC2CC2)cc(-c2cccc(Cl)c2Cl)n1` [PCM-0215420] was 28.6%.

In the case of `Cc1ncc(Cl)cc1NCc1ccc(C(=O)N[C@@H](CC2CCCC2)C(=O)NC2CC2)s1` [PCM-0215421], the inhibition at 10 µM was determined as 15.4%. The value for `Fc1ccc2[nH]ccc2c1-c1nc(N2CCOCC2)c2sc(CN3CCN(CC4CC4)CC3)cc2n1` [PCM-0215422] was -18.6%; that for `CCc1cc(/C(C)=N/OCc2ccc(C3CCCCC3)c(C(F)(F)F)c2)ccc1CN1CC(C(=O)O)C1` [PCM-0215423] was -62.8%; that for `COC(=O)[C@H](CCSC)NC(=O)c1ccc(NC[C@@H](N)CS)cc1-c1ccccc1` [PCM-0215424] was -57.9%. To `CN(C)c1cccc(-c2c3c(=O)n(-c4ccccc4Cl)[nH]c3cc(=O)n2C)c1` [PCM-0215425] belongs -1.4%; to `COc1ccc(CCNCc2ccc(OCc3ccc(Cl)nc3)c(OC)c2)cc1OC` [PCM-0215426], -27.6%. To `O=C(O)CCC(=O)Nc1ccc(Br)cn1` [PCM-0215427] belongs -3.4%. Consider `Fc1ccc(Cl)cc1-c1nc(Nc2ccncc2)c2nccnc2n1` [PCM-0215428], for which the inhibition at 10 µM was -17%. Regarding `C/C(O)=C(\C#N)C(=O)Nc1cc(Br)ccc1Br` [PCM-0215429], the inhibition at 10 µM is -1.4%. To `O=C(O)c1cc(C(F)(F)F)ccc1N1CC[C@H](OCc2ccccn2)C1` [PCM-0215430] belongs 8.5%; to `Cc1nc2ccc(NC(=O)Nc3ccnc4cccnc34)cc2o1` [PCM-0215431], -18.5%; to `Cn1cc(C[C@@H](N)C(=O)O)c2ccccc21` [PCM-0215432], -11.1%. Take `CC(ONC(=O)c1cc(C(F)(F)F)cc(C(F)(F)F)c1)C(=O)Nc1ccc(Cl)cc1` (stereo not shown) [PCM-0215433]: the inhibition at 10 µM is 7.7%.

Turning to `CNC(=O)c1cc(Oc2ccc3nc(N[C@@H]4CCCC[C@H]4O)sc3c2)ccn1` [PCM-0215436], the inhibition at 10 µM was -9%.

`CCCC[C@@H](C=O)NC(=O)[C@H](CC(C)C)NC(=O)OCc1ccccc1` [PCM-0215437]: the inhibition at 10 µM was -4.6%. The value for `O=C1NC(=O)C(c2cnc3ccccn23)=C1c1cn2c3c(cc(F)cc13)CN(C(=O)N1CCCCC1)CC2` [PCM-0215438] was 80%.

Take `Cc1nc2ccc(-n3ncc(C(=O)c4cc5ccccc5[nH]4)c3N)cc2[nH]1` [PCM-0215439]: the inhibition at 10 µM is 44.8%. To `COc1cc2nc(N3CCCC3)nc(NCCCCCN3CCCC3)c2cc1OC` [PCM-0215440] belongs 17.8%; to `Cc1ccccc1N=Nc1ccc(NC(=O)c2ccnn2C)c(C)c1` [PCM-0215441], 6.9%. The value for `Cc1nn(C)c2c1C(c1ccc(C(F)(F)F)cc1)C(C#N)=C(N)O2` (stereo not shown) [PCM-0215442] was -6.9%; that for `CNc1cccc(CCOc2ccc3c(c2)CN(CC(F)(F)F)C(=O)[C@H](CC(=O)O)C3)n1` [PCM-0215443] was 8.5%. To `CC[C@H](C)n1cc(C)c2c(C(=O)NCc3c(C)cc(C)[nH]c3=O)cc(-c3ccc(N4CCNCC4)nc3)cc21` [PCM-0215444] belongs -2.6%. `C[C@H]1CO[C@@H]2Cn3cc(C(=O)NCc4ccc(F)cc4F)c(=O)c(O)c3C(=O)N12` [PCM-0215445]: the inhibition at 10 µM worked out at 24.7%. To `O=C(NC[C@H](O)CN1CCc2ccccc2C1)c1cc(NC2COC2)ncn1` [PCM-0215447] belongs 1.5%; to `CC#CC(=O)Nc1ccc2ncnc(Nc3cccc(Br)c3)c2c1` [PCM-0215449], 103%; to `CC(C)(C)C[C@@H]1N[C@@H](C(=O)NC2CCC(O)CC2)[C@H](c2cccc(Cl)c2F)[C@]12C(=O)Nc1cc(Cl)ccc12` (stereo partly shown) [PCM-0215450], 21.6%. The value for `COC(=O)c1ccc2c(c1)[nH]c1ncnc(NCCCN3CCCCC3)c12` [PCM-0215451] was -0.8%. The value for `O=S(=O)(N=Cc1c(O)ccc2ccccc12)c1cccs1` [PCM-0215452] was -11.6%. As for `CCn1c(=O)c(-c2ccc(-c3cncs3)cc2Cl)cc2cnc(Nc3ccc(N4CCN(C)CC4)cc3)nc21` [PCM-0215453], the inhibition at 10 µM is 18.6%.

On to `Cc1nc(-c2cccnc2)sc1C(=O)Nc1ccccc1-c1cn2c(CN3CCOCC3)csc2n1` [PCM-0215454], for which the inhibition at 10 µM came to 12.4%. The value for `O=C1NC(=NCc2cccs2)S/C1=C\c1ccc2ncccc2c1` [PCM-0215455] was -9%. The value for `O=C(NO)c1cccc(C(=O)NCCc2ccccc2)c1` [PCM-0215456] was 10%; that for `Clc1cccc(CN=C2Nc3ccccc3NC23CCNCC3)c1` [PCM-0215457] was 4.6%. The value for `CN1CCN(CCCNc2ncc(Cl)c(-c3cc4c(C(=O)NC5CC5)cccc4s3)n2)CC1` [PCM-0215458] was -10.8%; that for `Cn1ncc(Cl)c1-c1cc(C(=O)N[C@H](CN)Cc2cccc(F)c2)sc1Cl` [PCM-0215459] was -40%. `COC1(c2sc3c(N4CCOCC4)nc(-c4cnc(N)nc4)nc3c2C)COC1` [PCM-0215460]: the inhibition at 10 µM is 33.8%. For `O=C(Cc1cccc(OC(F)(F)F)c1)Nc1ccc(CCCCc2nnc(NC(=O)Cc3ccccn3)s2)nn1` [PCM-0215461], the inhibition at 10 µM was 0%. To `COc1cc(-c2cc(-c3ccc(N4CCNCC4)cc3)cnc2C)cc(OC)c1OC` [PCM-0215462] belongs -19.3%; to `CCOC(=O)c1ccc(NC(=O)O[C@H]2[C@H](OC(=O)Nc3ccc4c(c3)OCO4)[C@@H](OC(=O)Nc3ccc4c(c3)OCO4)[C@@H](OC)O[C@@H]2CO)cc1` [PCM-0215463], 98.1%. As for `CC(C)[C@H](CO)Nc1nc(Nc2cccc(Cl)c2)c2ncn(C(C)C)c2n1` [PCM-0215464], the inhibition at 10 µM turned out to be 50.3%. The value for `COc1cc2ncnc(Oc3ccc(CC(=O)Nc4cnn(C(C)C)c4)cc3)c2cc1OC` [PCM-0215465] was -11.7%; that for `Cc1nc2c(O)cccc2c(=O)[nH]1` [PCM-0215466] was -10.8%. The value for `O=[N+]([O-])c1ccc(Nc2nc(N3CCOCC3)nc(N3CCOCC3)n2)cc1` [PCM-0215468] was 0%.
